Reference: ChEMBL document CHEMBL3864190, “Discovery of Pyrazolopyrimidine Derivatives as Novel Dual Inhibitors of BTK and PI3Kδ” (ACS Med Chem Lett, 2016)

Columns and labels:
[1] = Clearance in mouse plasma at 5 mg/kg, iv or 15 mg/kg, po by HPLC/MS analysis; assay type: ADME, organism-based
[2] = Apparent volume of distribution in mouse plasma at 5 mg/kg, iv or 15 mg/kg, po by HPLC/MS analysis; assay type: ADME, organism-based; conditions: read-out: Vz
[3] = AUC in mouse plasma at 15 mg/kg, po by HPLC/MS analysis; assay type: ADME, organism-based
[4] = Half life in mouse plasma at 15 mg/kg, po by HPLC/MS analysis; assay type: ADME, organism-based
[5] = Oral bioavailability in mouse plasma at 15 mg/kg by HPLC/MS analysis; assay type: ADME, organism-based
[6] = Drug metabolism in mouse liver microsomes assessed as compound oxidation by measuring parent compound remaining at 1 uM after 30 mins in presence of NADPH by LC-MS/MS analysis; assay type: ADME; conditions: for remaining at 0.5 h, 1 µM: liver microsomes, read-out: Stability
[7] = Drug metabolism in mouse liver microsomes assessed as UGT-mediated compound glucuronidation by measuring parent compound remaining at 5 uM after 30 mins in presence of UDPGA by LC-MS/MS analysis; assay type: ADME; conditions: for remaining at 0.5 h, 5 µM: liver microsomes, read-out: Stability
[8] = Drug metabolism in human liver microsomes assessed as compound oxidation by measuring parent compound remaining at 1 uM after 30 mins in presence of NADPH by LC-MS/MS analysis; assay type: ADME; conditions: for remaining at 0.5 h, 1 µM: liver microsomes, read-out: Stability
[9] = Drug metabolism in human liver microsomes assessed as UGT-mediated compound glucuronidation by measuring parent compound remaining at 5 uM after 30 mins in presence of UDPGA by LC-MS/MS analysis; assay type: ADME; conditions: read-out: Stability
[10] = target: T1, Phosphatidylinositol 4,5-bisphosphate 3-kinase catalytic subunit delta isoform (Homo sapiens) (UniProt O00329); assay: Inhibition of PI3Kdelta (unknown origin) using biotinylated PIP2 as substrate at 100 nM in presence of streptavidin-APC by FRET assay
T1 sequence (whole entry): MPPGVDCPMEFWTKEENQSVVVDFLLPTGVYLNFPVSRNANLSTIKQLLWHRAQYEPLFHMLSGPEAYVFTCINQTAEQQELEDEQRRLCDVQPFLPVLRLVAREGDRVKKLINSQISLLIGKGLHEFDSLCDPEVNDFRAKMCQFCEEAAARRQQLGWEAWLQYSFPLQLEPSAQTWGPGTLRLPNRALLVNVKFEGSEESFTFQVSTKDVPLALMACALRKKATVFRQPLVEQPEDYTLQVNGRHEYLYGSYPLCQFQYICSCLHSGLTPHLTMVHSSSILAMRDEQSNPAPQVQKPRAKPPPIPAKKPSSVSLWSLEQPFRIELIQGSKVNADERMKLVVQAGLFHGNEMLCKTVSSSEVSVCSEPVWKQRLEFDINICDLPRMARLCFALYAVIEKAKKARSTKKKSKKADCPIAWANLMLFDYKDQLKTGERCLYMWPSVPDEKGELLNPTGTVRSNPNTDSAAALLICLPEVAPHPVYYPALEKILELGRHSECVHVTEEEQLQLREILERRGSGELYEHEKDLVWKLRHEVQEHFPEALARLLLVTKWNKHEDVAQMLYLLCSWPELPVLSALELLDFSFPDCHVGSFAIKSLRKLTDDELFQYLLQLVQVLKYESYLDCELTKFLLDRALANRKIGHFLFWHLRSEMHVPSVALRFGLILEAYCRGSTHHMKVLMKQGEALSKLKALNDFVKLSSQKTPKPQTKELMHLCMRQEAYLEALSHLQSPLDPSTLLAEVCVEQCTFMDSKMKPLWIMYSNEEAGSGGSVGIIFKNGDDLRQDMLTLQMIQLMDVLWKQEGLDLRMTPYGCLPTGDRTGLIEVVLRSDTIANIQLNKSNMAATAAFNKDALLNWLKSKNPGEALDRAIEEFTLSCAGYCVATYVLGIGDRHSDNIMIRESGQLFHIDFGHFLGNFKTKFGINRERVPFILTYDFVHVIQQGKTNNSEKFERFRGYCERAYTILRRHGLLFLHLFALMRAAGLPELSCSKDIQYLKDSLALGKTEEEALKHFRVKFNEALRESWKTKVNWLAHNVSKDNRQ

[11] = target: T2, Tyrosine-protein kinase BTK (Homo sapiens, UniProt Q06187); conditions: at 100 nM
T2 sequence (Q06187 whole entry): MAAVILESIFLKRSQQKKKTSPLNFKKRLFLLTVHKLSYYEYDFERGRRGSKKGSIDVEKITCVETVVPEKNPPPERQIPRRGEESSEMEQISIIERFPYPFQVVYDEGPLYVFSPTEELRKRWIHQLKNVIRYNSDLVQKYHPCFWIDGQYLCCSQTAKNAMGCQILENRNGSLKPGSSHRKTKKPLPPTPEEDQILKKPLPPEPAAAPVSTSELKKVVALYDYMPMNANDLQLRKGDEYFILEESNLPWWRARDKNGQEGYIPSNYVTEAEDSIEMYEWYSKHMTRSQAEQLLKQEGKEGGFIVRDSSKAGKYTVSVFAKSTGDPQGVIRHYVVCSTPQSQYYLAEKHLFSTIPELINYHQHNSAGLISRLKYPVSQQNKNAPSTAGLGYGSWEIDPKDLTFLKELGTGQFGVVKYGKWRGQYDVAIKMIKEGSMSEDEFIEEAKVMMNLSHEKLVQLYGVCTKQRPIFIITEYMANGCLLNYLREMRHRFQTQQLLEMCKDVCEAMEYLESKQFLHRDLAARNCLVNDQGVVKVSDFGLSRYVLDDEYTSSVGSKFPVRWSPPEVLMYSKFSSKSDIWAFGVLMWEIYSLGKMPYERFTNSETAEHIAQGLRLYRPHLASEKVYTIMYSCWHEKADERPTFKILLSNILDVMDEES

Homo sapiens [12] = species on record: Homo sapiens; assay: Selectivity ratio of IC50 for PI3Kalpha (unknown origin) to IC50 for PI3Kdelta (unknown origin)
Homo sapiens [13] = species on record: Homo sapiens; assay: Selectivity ratio of IC50 for PI3Kbeta (unknown origin) to IC50 for PI3Kdelta (unknown origin)
Homo sapiens [14] = species on record: Homo sapiens; assay: Selectivity ratio of IC50 for PI3Kgamma (unknown origin) to IC50 for PI3Kdelta (unknown origin)
Homo sapiens [15] = species on record: Homo sapiens; assay: Selectivity ratio of IC50 for human BMX to IC50 for human BTK
Homo sapiens [16] = species on record: Homo sapiens; assay: Selectivity ratio of IC50 for human TEC to IC50 for human BTK
[17] = target: T3, Phosphatidylinositol 4,5-bisphosphate 3-kinase catalytic subunit delta isoform (Homo sapiens, UniProt O00329); assay: Inhibition of PI3Kdelta (unknown origin) using biotinylated PIP2 as substrate in presence of streptavidin-APC by FRET assay
T3 sequence (O00329 whole entry): T1 sequence (whole entry)

[18] = target: T2, Tyrosine-protein kinase BTK
[19] = Drug metabolism in rat liver microsomes assessed as compound oxidation by measuring parent compound remaining at 1 uM after 30 mins in presence of NADPH by LC-MS/MS analysis; assay type: ADME; conditions: microsomes, 0.5 h, 1 µM
[20] = Drug metabolism in dog liver microsomes assessed as compound oxidation by measuring parent compound remaining at 1 uM after 30 mins in presence of NADPH by LC-MS/MS analysis; assay type: ADME, Canis lupus familiaris; conditions: 0.5 h
[21] = Efflux ratio of apparent permeability from basolateral to apical side over apical to basolateral side in human Caco2 cells; assay type: ADME, cell-based; conditions: caco-2
[22] = Protein binding in mouse plasma; assay type: ADME, cell-free
[23] = Clearance in mouse plasma at 2 mg/kg, iv or 10 mg/kg, po by HPLC/MS analysis; assay type: ADME, organism-based; conditions: in vivo
[24] = Apparent volume of distribution in mouse plasma at 2 mg/kg, iv or 10 mg/kg, po by HPLC/MS analysis; assay type: ADME, organism-based; conditions: in vivo
[25] = AUC in mouse plasma at 10 mg/kg, po by HPLC/MS analysis; assay type: ADME, organism-based; conditions: in vivo
[26] = Half life in mouse plasma at 10 mg/kg, po by HPLC/MS analysis; assay type: ADME, organism-based; conditions: in vivo
[27] = Oral bioavailability in mouse plasma at 10 mg/kg by HPLC/MS analysis; assay type: ADME, organism-based; conditions: in vivo

SMILES: COc1ccc(-c2nn(C3Cc4ccccc4C3)c3ncnc(N)c23)cc1O
- clearance [1]: 31.2 mL/min/kg
- Vd [2]: 6.56 L/kg
- AUC [3]: 2.37 µM·h
- half-life [4]: 378 min
- bioavailability [5]: 11%
- remaining at 0.5 h, 1 µM [6]: 14%
- remaining at 0.5 h, 5 µM [7]: 12%
- remaining at 0.5 h, 1 µM [8]: 52%
- remaining at 0.5 h, 5 µM [9]: 7%

SMILES: Nc1ncnc2c1c(-c1cc(F)c3c(c1)NCCO3)nn2C1Cc2cc(F)ccc2C1=O (racemic)
- inhibition [10]: 26%
- inhibition [11]: 6.6%

SMILES: Nc1ncnc2c1c(-c1cc(F)c(F)c(F)c1)nn2C1Cc2ccccc2C1
- inhibition [10]: 21%
- remaining at 0.5 h, 5 µM [7]: 85%
- inhibition [11]: 21%

SMILES: Nc1ccc2c(c1)CC(n1nc(-c3cc(F)c4c(c3)NCCO4)c3c(N)ncnc31)C2 (stereo in doubt; (+)-32)
- Ratio IC50 (Homo sapiens [12]): 6
- Ratio IC50 (Homo sapiens [13]): 34
- Ratio IC50 (Homo sapiens [14]): 2
- Ratio IC50 (Homo sapiens [15]): 4
- Ratio IC50 (Homo sapiens [16]): 20

SMILES: Cc1ccc(-c2nn(C3Cc4ccccc4C3)c3ncnc(N)c23)cc1O
- IC50 [17]: 172 nM
- IC50 [18]: 43 nM

SMILES: Nc1cc(-c2nn(C3Cc4ccccc4C3)c3ncnc(N)c23)ccc1F
- inhibition [10]: 8.2%
- remaining at 0.5 h, 5 µM [7]: 92%
- inhibition [11]: 79%

SMILES: Nc1ncnc2c1c(-c1ccc3[nH]cnc3c1)nn2C1Cc2ccccc2C1
- remaining at 0.5 h, 5 µM [7]: 90%

SMILES: Nc1ccc2c(c1)CC(n1nc(-c3cc(F)c4c(c3)NCCO4)c3c(N)ncnc31)C2 (single isomer, unassigned; (-)) [listing 1 of 2 here]
- Ratio IC50 (Homo sapiens [12]): 17
- Ratio IC50 (Homo sapiens [13]): 44
- Ratio IC50 (Homo sapiens [14]): 7
- Ratio IC50 (Homo sapiens [15]): 1
- Ratio IC50 (Homo sapiens [16]): 7

SMILES: Nc1ncnc2c1c(-c1ccc3c(c1)NCCO3)nn2C1Cc2ccccc2C1
- inhibition [10]: 40%
- remaining at 0.5 h, 5 µM [7]: 98%
- inhibition [11]: 57%

SMILES: Nc1ncnc2c1c(-c1ccc3cc[nH]c3c1)nn2C1Cc2ccccc2C1
- inhibition [10]: 24%
- inhibition [11]: 46%

SMILES: Nc1ncnc2c1c(-c1cc(F)c3c(c1)NCCO3)nn2C1Cc2ccccc2C1
- inhibition [10]: 53%
- remaining at 0.5 h, 5 µM [7]: 91%
- inhibition [11]: 52%

SMILES: Cc1ccccc1-n1c(Cn2nc(-c3cc(O)cc(F)c3)c3c(N)ncnc32)nc2cccc(C)c2c1=O
- IC50 [18]: > 10000 nM

SMILES: Nc1ncnc2c1c(-c1cc(O)cc(F)c1)nn2C1Cc2ccccc2C1
- IC50 [17]: 8 nM
- clearance [1]: 85 mL/min/kg
- Vd [2]: 6.01 L/kg
- AUC [3]: 0.177 µM·h
- half-life [4]: 186 min
- bioavailability [5]: 2.2%
- remaining at 0.5 h, 1 µM [6]: 25%
- remaining at 0.5 h, 5 µM [7]: < 1%
- remaining at 0.5 h, 1 µM [8]: 67%
- remaining at 0.5 h, 5 µM [9]: 1.3%

SMILES: COc1ccc(-c2nn(C3Cc4ccccc4C3)c3ncnc(N)c23)cc1N
- inhibition [10]: 14%
- remaining at 0.5 h, 5 µM [7]: 89%
- inhibition [11]: 72%

SMILES: Nc1ccc2c(c1)CC(n1nc(-c3cc(F)c4c(c3)NCCO4)c3c(N)ncnc31)C2 (single isomer, unassigned; (-)) [listing 2 of 2 here]
- IC50 [17]: 16 nM
- Stability ([6]; microsomes, 0.5 h, 1 µM): 11%
- Stability ([7]; microsomes, 0.5 h, 5 µM): 99%
- Stability ([8]; microsomes, 0.5 h, 1 µM): 63%
- Stability [19]: 46%
- Stability [20]: 32%
- Ratio [21]: 1.7
- PPB [22]: 98%
- CL [23]: 9.83 mL/min/kg
- Vz [24]: 3.44 L/kg
- AUC [25]: 15.2 µM·h
- t1/2 [26]: 78 min
- F [27]: 40%
- IC50 [18]: 32 nM

SMILES: Nc1ncnc2c1c(-c1cc(O)c(F)c(F)c1)nn2C1Cc2ccccc2C1
- IC50 [17]: 3 nM
- inhibition [10]: 87%
- clearance [1]: 154 mL/min/kg
- Vd [2]: 12.1 L/kg
- AUC [3]: 0.073 µM·h
- half-life [4]: 57 min
- bioavailability [5]: 1.7%
- remaining at 0.5 h, 1 µM [6]: 78%
- remaining at 0.5 h, 5 µM [7]: 5.1 to 7.1%
- remaining at 0.5 h, 1 µM [8]: 75%
- remaining at 0.5 h, 5 µM [9]: 3.7%
- inhibition [11]: 74%

SMILES: Nc1ncnc2c1c(-c1cccc(O)c1)nn2C1Cc2ccccc2C1
- inhibition [10]: 41%
- inhibition [11]: 66%

SMILES: Nc1ccc2c(c1)CC(n1nc(-c3cc(F)c4c(c3)NCCO4)c3c(N)ncnc31)CC2 (single isomer, unassigned; (-))
- IC50 [17]: 72 nM
- IC50 [18]: 19 nM

SMILES: Nc1ncnc2c1c(-c1ccc(F)c(O)c1)nn2C1Cc2ccccc2C1
- clearance [1]: 122 mL/min/kg
- Vd [2]: 5.45 L/kg
- AUC [3]: 0.211 µM·h
- half-life [4]: 48 min
- bioavailability [5]: 3.7%

SMILES: Nc1ncnc2c1c(-c1ccc3nc[nH]c3c1)nn2C1Cc2ccccc2C1
- inhibition [10]: 78%
- inhibition [11]: 9.6%

SMILES: Nc1ncnc2c1c(-c1cc(F)c3c(c1)NCCO3)nn2C1CCc2ccccc2C1 (racemic)
- inhibition [10]: 52%
- inhibition [11]: 34%

SMILES: Nc1ncnc2c1c(-c1ccc(Cl)c(O)c1)nn2C1Cc2ccccc2C1
- IC50 [18]: 14 nM

SMILES: Nc1cc(-c2nn(C3Cc4ccccc4C3)c3ncnc(N)c23)cc(F)c1F
- inhibition [10]: 26%
- remaining at 0.5 h, 5 µM [7]: 97%
- inhibition [11]: 63%

SMILES: Nc1ccc2c(c1)CC(n1nc(-c3cc(F)c4c(c3)NCCO4)c3c(N)ncnc31)CC2 (single isomer, unassigned; (+))
- IC50 [17]: 55 nM
- IC50 [18]: 176 nM

SMILES: Nc1ncnc2c1c(-c1cc(O)cc(Cl)c1)nn2C1Cc2ccccc2C1
- IC50 [17]: 4 nM
- clearance [1]: 156 mL/min/kg
- Vd [2]: 11.5 L/kg
- AUC [3]: 0.033 µM·h
- half-life [4]: 36 min
- bioavailability [5]: 0.8%
